Data: PubChem BioAssay (NCI)
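Step 1: Grow cells in 96-well plates. Step 2: Expose to compound for 48 hours at 5 concentrations. Step 3: Interpolate endpoints linearly; if unreached, use highest concentration. GI50 = concentration required for 50% inhibition of growth. TGI: concentration producing complete growth inhibition.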

Columns and labels:
Assay in all cases: NCI-60 cell line screen, 48 h
NCI-H226 lung = system: NCI-H226 lung
OVCAR-8 ovarian = system: OVCAR-8 ovarian
HL-60(TB) leukemia = system: HL-60(TB) leukemia
KM12 colon = system: KM12 colon
SK-OV-3 ovarian = system: SK-OV-3 ovarian
SK-MEL-28 melanoma = system: SK-MEL-28 melanoma
M14 melanoma = system: M14 melanoma
U251 CNS = system: U251 CNS
SF-268 CNS = system: SF-268 CNS
DU-145 prostate = system: DU-145 prostate

O=C1Oc2ccccc2C(=O)/C1=C/N1C(=O)N/C(=C\c2ccccc2O)C1=O
TGI (NCI-H226 lung): > 100 µM | TGI (OVCAR-8 ovarian): > 100 µM | TGI (HL-60(TB) leukemia): > 100 µM | TGI (KM12 colon): > 100 µM | TGI (SK-OV-3 ovarian): > 100 µM | TGI (SK-MEL-28 melanoma): > 100 µM | TGI (M14 melanoma): > 100 µM | TGI (U251 CNS): > 100 µM | TGI (SF-268 CNS): > 100 µM | TGI (DU-145 prostate): > 100 µM

CC(=O)NC1C(OCc2ccccc2)OC(CO)C(O)C1OCC(=O)NC(C)C(=O)NC(CCC(=O)NCCCCNc1ccc([N+](=O)[O-])c2[nH]c3ccccc3c(=O)c12)C(N)=O (stereo unspecified)
TGI (NCI-H226 lung): > 100 µM | TGI (OVCAR-8 ovarian): > 100 µM | TGI (HL-60(TB) leukemia): > 100 µM | TGI (KM12 colon): > 100 µM | TGI (SK-OV-3 ovarian): > 100 µM | TGI (SK-MEL-28 melanoma): > 100 µM | TGI (M14 melanoma): > 100 µM | TGI (U251 CNS): > 100 µM | TGI (SF-268 CNS): > 100 µM | TGI (DU-145 prostate): > 100 µM

CCC(C)[C@@H](NCc1ccccc1)[C@H](OCc1ccccc1)[C@@H]1COC(C)(C)O1 (stereo partly specified)
TGI (NCI-H226 lung): 30.6 µM | TGI (OVCAR-8 ovarian): 45.4 µM | TGI (KM12 colon): 44.3 µM | TGI (SK-OV-3 ovarian): > 100 µM | TGI (SK-MEL-28 melanoma): 71.4 µM | TGI (M14 melanoma): > 100 µM | TGI (U251 CNS): 51.1 µM | TGI (SF-268 CNS): 68.6 µM | TGI (DU-145 prostate): 68 µM

O=C1N[C@H]2c3c(Cl)sc(Cl)c3/C(=N/O)[C@H]2O1
TGI (OVCAR-8 ovarian): > 100 µM | TGI (HL-60(TB) leukemia): 57.9 µM | TGI (KM12 colon): > 100 µM | TGI (SK-OV-3 ovarian): > 100 µM | TGI (SK-MEL-28 melanoma): > 100 µM | TGI (M14 melanoma): > 100 µM | TGI (U251 CNS): > 100 µM | TGI (SF-268 CNS): > 100 µM | TGI (DU-145 prostate): > 100 µM

O=c1[nH]c(=O)n(C2CC(O)C(CO)O2)cc1I (stereo unspecified)
TGI (NCI-H226 lung): > 100 µM | TGI (OVCAR-8 ovarian): > 100 µM | TGI (HL-60(TB) leukemia): > 100 µM | TGI (KM12 colon): > 100 µM | TGI (SK-OV-3 ovarian): > 100 µM | TGI (SK-MEL-28 melanoma): > 100 µM | TGI (M14 melanoma): > 100 µM | TGI (U251 CNS): > 100 µM | TGI (SF-268 CNS): > 100 µM | TGI (DU-145 prostate): > 100 µM

CNC(=O)c1ccccc1-[s+]1c2ccccc2c(=O)n1C (stereo unspecified)
TGI (NCI-H226 lung): > 100 µM | TGI (OVCAR-8 ovarian): > 100 µM | TGI (HL-60(TB) leukemia): > 100 µM | TGI (KM12 colon): > 100 µM | TGI (SK-MEL-28 melanoma): > 100 µM | TGI (M14 melanoma): > 100 µM | TGI (U251 CNS): > 100 µM | TGI (SF-268 CNS): > 100 µM | TGI (DU-145 prostate): > 100 µM

O=c1cnn(C/C=C\CO)c(=O)[nH]1
TGI (NCI-H226 lung): > 100 µM | TGI (OVCAR-8 ovarian): > 100 µM | TGI (HL-60(TB) leukemia): > 100 µM | TGI (KM12 colon): > 100 µM | TGI (SK-MEL-28 melanoma): > 100 µM | TGI (M14 melanoma): > 100 µM | TGI (U251 CNS): > 100 µM | TGI (SF-268 CNS): > 100 µM | TGI (DU-145 prostate): > 100 µM

CCOC(=O)c1ccc(N=NN(C)C(=O)C(C)N)cc1 (stereo unspecified)
TGI (NCI-H226 lung): > 100 µM | TGI (OVCAR-8 ovarian): > 100 µM | TGI (HL-60(TB) leukemia): > 100 µM | TGI (KM12 colon): > 100 µM | TGI (SK-MEL-28 melanoma): > 100 µM | TGI (M14 melanoma): > 100 µM | TGI (U251 CNS): > 100 µM | TGI (SF-268 CNS): > 100 µM | TGI (DU-145 prostate): > 100 µM

O=C(CSCC(=O)N/N=C/c1cc(I)cc(I)c1O)N/N=C/c1cc(I)cc(I)c1O
TGI (NCI-H226 lung): 41.1 µM | TGI (OVCAR-8 ovarian): 59.8 µM | TGI (HL-60(TB) leukemia): 43.5 µM | TGI (KM12 colon): 88.2 µM | TGI (SK-OV-3 ovarian): 35 µM | TGI (SK-MEL-28 melanoma): > 100 µM | TGI (M14 melanoma): 43.6 µM | TGI (U251 CNS): 26.2 µM | TGI (SF-268 CNS): 22.6 µM | TGI (DU-145 prostate): > 100 µM

CCc1nn(CN2CCN(C)CC2)c(=S)n1/N=C\c1ccc(-c2ccc([N+](=O)[O-])cc2)o1
TGI (NCI-H226 lung): 86.4 µM | TGI (OVCAR-8 ovarian): > 100 µM | TGI (HL-60(TB) leukemia): > 100 µM | TGI (KM12 colon): > 100 µM | TGI (SK-OV-3 ovarian): > 100 µM | TGI (M14 melanoma): > 100 µM | TGI (U251 CNS): > 100 µM | TGI (SF-268 CNS): > 100 µM | TGI (DU-145 prostate): > 100 µM

COc1cc2c(cc1OCCCN1CCN(CCCOc3cc4c(cc3OC)C(=O)N3CCC[C@H]3C=N4)CC1)C=CC(C)(C)O2
GI50 (OVCAR-8 ovarian): 1.38 µM | TGI (OVCAR-8 ovarian): 3.85 µM | GI50 (HL-60(TB) leukemia): 0.252 µM | TGI (HL-60(TB) leukemia): 0.738 µM | GI50 (KM12 colon): 0.904 µM | TGI (KM12 colon): 2.14 µM | GI50 (SK-OV-3 ovarian): 1.61 µM | TGI (SK-OV-3 ovarian): 2.99 µM | GI50 (SK-MEL-28 melanoma): 1.51 µM | TGI (SK-MEL-28 melanoma): 2.83 µM | GI50 (M14 melanoma): 1.34 µM | TGI (M14 melanoma): 2.62 µM | GI50 (DU-145 prostate): 0.889 µM | TGI (DU-145 prostate): 2.1 µM

COc1cc(/C=C2/SC(c3ccccc3)N(c3ccc(NC(C)=O)cc3)C2=O)cc(OC)c1OC (stereo unspecified)
TGI (NCI-H226 lung): > 100 µM | TGI (OVCAR-8 ovarian): > 100 µM | TGI (HL-60(TB) leukemia): > 100 µM | TGI (KM12 colon): > 100 µM | TGI (SK-OV-3 ovarian): > 100 µM | TGI (SK-MEL-28 melanoma): > 100 µM | TGI (M14 melanoma): > 100 µM | TGI (U251 CNS): > 100 µM | TGI (SF-268 CNS): > 100 µM | TGI (DU-145 prostate): > 100 µM

O=c1cc(CNC2CCCC2)[nH]c(=O)[nH]1
TGI (OVCAR-8 ovarian): > 100 µM | TGI (HL-60(TB) leukemia): > 100 µM | TGI (KM12 colon): > 100 µM | TGI (SK-OV-3 ovarian): > 100 µM | TGI (SK-MEL-28 melanoma): > 100 µM | TGI (M14 melanoma): > 100 µM | TGI (U251 CNS): > 100 µM | TGI (SF-268 CNS): > 100 µM | TGI (DU-145 prostate): > 100 µM

O=C1c2c(F)c(F)c(F)c(F)c2SC2=NCCN12
TGI (NCI-H226 lung): 34.5 µM | TGI (OVCAR-8 ovarian): 24.5 µM | TGI (KM12 colon): 25.6 µM | TGI (SK-OV-3 ovarian): 28.7 µM | TGI (SK-MEL-28 melanoma): 22.8 µM | TGI (M14 melanoma): 14.1 µM | TGI (U251 CNS): 22.9 µM | TGI (SF-268 CNS): 28.2 µM | TGI (DU-145 prostate): 31 µM

Nc1nc(Cl)cc(NCC2(O)CC(CO)C2)n1 (stereo unspecified)
TGI (NCI-H226 lung): > 100 µM | TGI (OVCAR-8 ovarian): > 100 µM | TGI (HL-60(TB) leukemia): > 100 µM | TGI (KM12 colon): > 100 µM | TGI (SK-OV-3 ovarian): > 100 µM | TGI (SK-MEL-28 melanoma): > 100 µM | TGI (U251 CNS): > 100 µM | TGI (SF-268 CNS): > 100 µM | TGI (DU-145 prostate): > 100 µM

c1csc(-c2ccc(-c3ccc(-c4ccc(-c5cccs5)s4)s3)s2)c1
TGI (NCI-H226 lung): > 100 µM | TGI (OVCAR-8 ovarian): > 100 µM | TGI (HL-60(TB) leukemia): 53.6 µM | TGI (SK-OV-3 ovarian): > 100 µM | TGI (M14 melanoma): > 100 µM | TGI (U251 CNS): > 100 µM | TGI (SF-268 CNS): > 100 µM | TGI (DU-145 prostate): > 100 µM

CC[C@@]1(O)C(=O)OCc2c1cc1n(c2=O)Cc2c-1nc1ccccc1c2/C=N\NC(=O)C(N)CC(C)C (stereo partly specified)
TGI (NCI-H226 lung): 0.975 µM | TGI (OVCAR-8 ovarian): 1.44 µM | TGI (HL-60(TB) leukemia): > 100 µM | TGI (SK-MEL-28 melanoma): > 100 µM | TGI (M14 melanoma): 0.648 µM | TGI (U251 CNS): 0.646 µM | TGI (SF-268 CNS): 3.68 µM | TGI (DU-145 prostate): > 100 µM

O=C1C(N2CCCC2)=CC(=O)c2c(O)c(N3CCCC3)c(Cl)c(O)c21
TGI (NCI-H226 lung): > 10 µM | TGI (HL-60(TB) leukemia): > 10 µM | TGI (KM12 colon): > 10 µM | TGI (SK-OV-3 ovarian): > 10 µM | TGI (SK-MEL-28 melanoma): > 10 µM | TGI (M14 melanoma): > 10 µM | TGI (U251 CNS): > 10 µM | TGI (SF-268 CNS): > 10 µM | TGI (DU-145 prostate): > 10 µM

Nc1nc2c(=O)c3ccccc3sc2s1
TGI (NCI-H226 lung): 79.1 µM | TGI (OVCAR-8 ovarian): 50.7 µM | TGI (HL-60(TB) leukemia): > 100 µM | TGI (KM12 colon): > 100 µM | TGI (SK-MEL-28 melanoma): > 100 µM | TGI (M14 melanoma): > 100 µM | TGI (U251 CNS): > 100 µM | TGI (SF-268 CNS): > 100 µM | TGI (DU-145 prostate): > 100 µM

O=c1c2ccccc2oc2nc3n(c(=O)c12)CCCS3
TGI (NCI-H226 lung): > 100 µM | TGI (OVCAR-8 ovarian): > 100 µM | TGI (KM12 colon): > 100 µM | TGI (SK-OV-3 ovarian): > 100 µM | TGI (SK-MEL-28 melanoma): > 100 µM | TGI (M14 melanoma): > 100 µM | TGI (U251 CNS): > 100 µM | TGI (SF-268 CNS): > 100 µM | TGI (DU-145 prostate): > 100 µM

CCOC(=O)c1cn(-c2ccccc2)c(=S)n2c1nc1ccccc12
TGI (NCI-H226 lung): > 88.1 µM | TGI (OVCAR-8 ovarian): > 100 µM | TGI (KM12 colon): > 100 µM | TGI (SK-OV-3 ovarian): > 100 µM | TGI (SK-MEL-28 melanoma): > 73.4 µM | TGI (M14 melanoma): > 100 µM | TGI (U251 CNS): > 100 µM | TGI (SF-268 CNS): 94.9 µM | TGI (DU-145 prostate): > 100 µM

CCC(C)[C@H](NC(=O)[C@H](Cc1ccccc1)NC(=O)N(CC)c1ccccc1)C(=O)N[C@@H](CC(C)C)C(=O)OC (stereo partly specified)
TGI (NCI-H226 lung): 46.2 µM | TGI (OVCAR-8 ovarian): > 100 µM | TGI (KM12 colon): 61.3 µM | TGI (SK-OV-3 ovarian): > 100 µM | TGI (SK-MEL-28 melanoma): > 100 µM | TGI (M14 melanoma): > 100 µM | TGI (U251 CNS): > 100 µM | TGI (SF-268 CNS): > 100 µM | TGI (DU-145 prostate): > 100 µM
